Experimental data published in patent US20220331298A1, “TREATMENT OF FRAGILE X SYNDROME WITH IBUDILAST IN COMBINATION WITH METFORMIN, CANNBIDIOL, SERTRALINE OR QUERCETIN” (priority 2019, published 2022).

Experiments:
Format in all cases: in vivo
[1] = test system: Fmr1 KO2 mice; assay: Behavioral testing (all behavioural tests together)
Excerpt: (§1) Fmr1 knockout 2 (Fmr1 KO2) mice were generated by deletion of the promoter and first exon of Fmr1. The Fmr1 KO2 it is both, protein and mRNA null. In this study we used Fmr1 KO2 and wild-type (WT) littermates generated on a C57BL/6J background and repeatedly backcrossed onto a C57BL/6J background for more than eight generations.
(§2) There were five treatment groups per compound in the study with 10 male mice used per treatment group (all at 8 weeks of age): Group 1: wild-type littermate mice treated with vehicle (WT-Veh), Group 2: Fmr1 KO2 mice treated with vehicle (KO-Veh), Group 3: Fmr1 KO2 mice treated with ibudilast (KO-ibudilast); Group 4: Fmr1 KO2 mice treated with compound A (KO-[compound A]); Group 5: Fmr1 KO2 mice treated with ibudilast and compound A (KO-ibu/[compound A].
For experiments, all mice were tested once in the same apparatus. Prior to testing, mice were placed in the apparatus for some minutes before the experiment. The apparatus was cleaned with moist and dry tissues before testing each mouse. The aim was to create a low but constant background mouse odor for all experimental subjects. Testers were blind to the genotype and treatment during all testing and data analysis. We assessed weight loss, fur loss, walking, eyes open, eye discharges and general behavior.
(§3) Data were analyzed by one-way ANOVA with a Dunnett's multiple comparison post hoc test in which WT Vehicle group was used as reference and compared with all the other groups

[2] = test system: Fmr1 KO2 mice; assay: Nesting
Excerpt: (§4) The Fmr1 KO2 it is both, protein and mRNA null. In this study we used Fmr1 KO2 and wild-type (WT) littermates generated on a C57BL/6J background and repeatedly backcrossed onto a C57BL/6J background for more than eight generations. There were five treatment groups per compound in the study with 10 male mice used per treatment group (all at 8 weeks of age): Group 1: wild-type littermate mice treated with vehicle (WT-Veh), Group 2: Fmr1 KO2 mice treated with vehicle (KO-Veh), Group 3: Fmr1 KO2 mice treated with ibudilast (KO-ibudilast); Group 4: Fmr1 KO2 mice treated with compound A (KO-[compound A]); Group 5: Fmr1 KO2 mice treated with ibudilast and compound A (KO-ibu/[compound A]. For experiments, all mice were tested once in the same apparatus. Prior to testing, mice were placed in the apparatus for some minutes before the experiment. The apparatus was cleaned with moist and dry tissues before testing each mouse. The aim was to create a low but constant background mouse odor for all experimental subjects. Testers were blind to the genotype and treatment during all testing and data analysis. We assessed weight loss, fur loss, walking, eyes open, eye discharges and general behavior. […] Mice were placed individually into the nesting cages 1 hr. before the dark phase, and the results were assessed the next morning. Nest building was scored on a 5 point scale. […]

[3] = test system: Fmr1 KO2 mice; assay: Fear conditioning
Excerpt: as §4, with “The dependent measure used in contextual fear conditioning” for “Mice were placed individually into the nesting cages 1 hr. before the dark phase, and the results were assessed the next morning. Nest building”, “was” for “was scored on”, “freezing response following a pairing of an unconditioned stimulus (foot shock), with a conditioned stimulus, a particular context.” for “5 point scale.”

[4] = test system: Fmr1 KO2 mice; assay: Social interaction (three-chambered sociability task)
Excerpt: as §1, §2
(§5) For experiments, all mice were tested once in the same apparatus. […] We assessed weight loss, fur loss, walking, eyes open, eye discharges and general behavior.
In the three-chambered sociability task, a subject mouse was evaluated for its exploration of a novel social stimulus (novel mouse). […] The time spent exploring the novel mice was scored as exploration ratio.
as §3

[5] = test system: Fmr1 KO2 mice; assay: Open field (hyperactivity)
Excerpt: as §1, §2, §5
The open-field apparatus was used to test hyperactivity. […] The number of squares entered by the whole body (locomotor activity) was counted. The movement of the mouse around the field was recorded with a video tracking device for 3 min (version NT4.0, Viewpoint).
as §3

SMILES: C=C(C)[C@@H]1CCC(C)=C[C@H]1c1c(O)cc(CCCCC)cc1O [cannabidiol]
- effect of the amount given alone in the behavioural tests ([1]; cannabidiol alone 5 mg/kg, FIG. 5): ineffective

SMILES: CC(C)C(=O)c1c(C(C)C)nn2ccccc12 [ibudilast, 2-methyl-1-(2-propan-2-ylpyrazolo[1,5-a]pyridin-3-yl)propan-1-one]
- nesting rescue ([2]; ibudilast 3 mg/kg, FIG. 1): inactive
- nesting rescue ([2]; ibudilast 12 mg/kg, FIG. 2): fully rescued
- effect of the amount given alone in the behavioural tests ([1]; ibudilast alone 3 mg/kg): ineffective
- fear conditioning rescue ([3]; ibudilast 3 mg/kg, FIG. 1): partially rescued
- fear conditioning rescue ([3]; ibudilast 12 mg/kg, FIG. 2): fully rescued
- sociability rescue ([4]; ibudilast 3 mg/kg, FIG. 1): inactive
- sociability rescue ([4]; ibudilast 12 mg/kg, FIG. 2): fully rescued
- open field (hyperactivity) rescue ([5]; ibudilast 3 mg/kg, FIG. 1): inactive
- open field (hyperactivity) rescue ([5]; ibudilast 12 mg/kg, FIG. 2): fully rescued

SMILES: CN(C)C(=N)N=C(N)N [metformin]
- effect of the amount given alone in the behavioural tests ([1]; metformin alone 25 mg/kg, FIG. 4): ineffective

SMILES: O=c1c(O)c(-c2ccc(O)c(O)c2)oc2cc(O)cc(O)c12 [quercetin]
- effect of the amount given alone in the behavioural tests ([1]; quercetin alone 5 mg/kg, FIG. 6): ineffective

SMILES: CN[C@H]1CC[C@@H](c2ccc(Cl)c(Cl)c2)c2ccccc21 [sertraline]
- effect of the amount given alone in the behavioural tests ([1]; sertraline alone 1 mg/kg, FIG. 3): ineffective
